In PubChem BioAssay AID624491 (Broad Institute, 2012):
Active and inactive are the calls of the source.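 The calls were made as follows: active = fitted curve crossing a set activation limit at or below the highest valid dose tested; inconclusive = flat fit at 30 to 70% activation, or poor fit; inactive = the rest, including signal decreases.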

System: D54 ERlucT glycosylation luciferase reporter, luminescence, 24 h
Assay: N-linked glycosylation inhibitors, luciferase reporter, dose response, D54 ERlucT cells, luminescence, cherry-picks (AID 624491);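 also: signal gain reflects blocked N-linked glycosylation of a luciferase reporter; actives raise luciferase signal so AC26 marks activators of the reporter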

SMILES | AC26
CC(=O)c1ccc(Oc2cc(C)nc(-n3nc(C)cc3C)n2)cc1 | 726 nM
COc1ccc(CNC(=O)c2cccc3c(-c4cccc(C(N)=O)c4)coc23)cc1OC | 663 nM
Cc1nc([N+](=O)[O-])c(Br)n1Cc1ccc(Cl)c(Cl)c1 | 885 nM
CCc1ccc(C(=O)Nc2ccc3c(c2)n(C)c(=O)n3C)cc1 | 6220 nM
Cc1cc(=O)oc2cc(OCC(=O)N3c4ccccc4CC3C)ccc12 (stereo not drawn) | 1090 nM
CC(=O)Nc1cccc(-c2ccnc3c2CC(C(=O)Nc2ccc4c(c2)OCO4)O3)c1 (stereo not drawn) | 4550 nM
N#Cc1cc2[nH]c3ccccc3c2[n+](-c2ccc([N+](=O)[O-])cc2)c1N | 4410 nM
COc1ccccc1CCC(=O)Nc1ccc2c(c1)c(=O)n(C)n2-c1cccs1 | 124 nM
Cc1nc(N=C(N)N)nc2c(C)cccc12 | 2200 nM
CCOc1ccc2[nH]c3c(N4CCc5ccccc5C4)ncnc3c2c1 | 3460 nM
CN(C)S(=O)(=O)c1ccc(N2CCCC2)c(C(=O)Nc2nc3ccc(F)cc3s2)c1 | 1540 nM
O=C(NCC1CCCO1)c1cc(-c2ccc(F)cc2)no1 (stereo not drawn) | 5760 nM
Cc1cnc(NC(=O)c2cc(S(=O)(=O)N(C)C)ccc2N2CCCC2)s1 | 10.7 nM
COc1ccc(NC(=O)COC(=O)/C=C/C(=O)OCC(=O)Nc2ccc(OC)c(Cl)c2)cc1Cl | 16600 nM
Cc1ccc2c(c1)C(=O)N1[C@H]3c4cc(Br)ccc4OC[C@@H]3[C@H](c3ccccc3)[C@]1(C)C(=O)N2 | 689 nM
O=C(N/N=C/c1ccc(F)cc1)c1sccc1OCc1ccc(F)cc1 | 1630 nM
CC1=CC(C)[C@H](/C=N/n2c(=O)[nH]c3c([nH]c4ccc(Br)cc43)c2=O)C(C)C1 (stereo partly drawn) | 3780 nM
COC(=O)Nc1nc(-c2ccccc2)c(C(=O)c2ccc(Cl)cc2)s1 | 3.16 nM
COc1cc(-c2nc(-c3ccccc3)c(-c3cccs3)[nH]2)cc(OC)c1O | 6100 nM
CN1C(=O)c2cccc3c(S(=O)(=O)Nc4ccccn4)ccc1c23 | 5030 nM
Cc1nnc2c(NC3CCCCC3)nc3ccccc3n12 | 2760 nM
Nc1c(N(CCC2=CCCCC2)C(=O)COc2ccc(F)cc2Cl)c(=O)[nH]c(=O)n1Cc1ccccc1 | 1070 nM

SMILES | AC26
CCOC(=O)[C@H]1[C@H]2COc3ccc(OC)cc3[C@@H]2N2C(=O)c3cc(OC)c(OC)cc3NC(=O)[C@@]12C | 300 nM
CN1CCN(C(c2ccc(Cl)cc2)c2cc(Cl)c3cccnc3c2O)CC1 (stereo not drawn) | 4040 nM
CCOC(=O)c1c(NC(=O)CN2C(=O)NC3(CCCCC3C)C2=O)sc(C)c1CC (stereo not drawn) | 6750 nM
O=c1cc(-c2ccc(O)cc2)oc2cc(O)c(C3OC(CO)C(O)C(O)C3O)c(O)c12 (stereo not drawn) | 690 nM
CC(=O)N(C1=C(Cl)C(=O)c2ccccc2C1=O)C1CCCCC1 | 31.1 nM
CC(=O)c1cccc(-c2ccnc3c2CC(C(=O)Nc2ccc4c(c2)OCO4)O3)c1 (stereo not drawn) | 2430 nM
COc1ccc(C(=O)c2ccc(OC)c(N)c2)cc1N | 143 nM
Cc1ccc(CCC(=O)Nc2ncc(Cc3cc(Cl)ccc3Cl)s2)o1 | 476 nM
Cc1cc(C)cc(N2C(=O)NC(=O)/C(=C\C=C\c3ccco3)C2=O)c1 | 1130 nM
COc1ccc(OC)c(-c2cc(-c3cccnc3)nc(N)c2C#N)c1 | 2230 nM
COc1ccc(-n2c(NNC(C)=O)nc3sc4c(c3c2=O)CCCC4)cc1 | 6720 nM
COc1cc(-c2cnc3c(NC(C)=O)cc(-c4ccccc4CN(C)C)cn23)cc(OC)c1OC | 2650 nM
Cc1ccc(-c2nn3c(C)nnc3c3ccccc23)cc1S(=O)(=O)N(C)CCO | 4210 nM
CCCOC(=O)c1[nH]c2c(c1C)C(=O)CC(c1cccs1)C2 (stereo not drawn) | 623 nM
Cc1ccc(N2CC(C(=O)Nc3ccc(S(=O)(=O)N4CCOCC4)cc3)CC2=O)cc1Cl (stereo not drawn) | 3860 nM
COC1C(O)C(C)OC(OC2C(Oc3cccc4c(O)c5c(=O)oc6ccc(C)c7c(=O)oc(c34)c5c67)OC(C)C(O)C2O)C1O (stereo not drawn) | 1000 nM
O=C(NCc1ccccc1Br)c1cccc2c1C(=O)c1ccc(-c3ccc(OC(F)(F)F)cc3)cc1S2(=O)=O | 4060 nM
Cc1cc(C)nc(/N=C(\N)Nc2ccc(OCc3ccccc3)cc2)n1 | 8.88 nM
CCN(CC)S(=O)(=O)c1cccc(C(=O)OCC(=O)Nc2ccc3c(c2)c2ccccc2n3CC)c1 | 4110 nM
CCN(CC)CCNc1cccc2sc3ccccc3c(=O)c12 | 4840 nM
CCOc1ccc2cc(/C=C/C(=O)c3ccco3)c(Cl)nc2c1 | 3060 nM
O=C(Cc1ccc(-c2ccccc2)cc1)NCc1cccnc1 | 12400 nM

SMILES | AC26
COc1ccc(-c2ccnc(-c3ccncc3)n2)cc1 | 1390 nM
CCOC(=O)c1c(C)nc2sc3c(=O)n(-c4ccc(C)cc4)cnc3c2c1-c1ccc(OC)cc1 | 116 nM
COc1ccc(NC(=O)C2Cc3c(-c4cccc(NC(C)=O)c4)ccnc3O2)cc1OC (stereo not drawn) | 2270 nM
COCCNC(=O)c1cc(-c2cccs2)on1 | 4600 nM
COc1ccccc1NS(=O)(=O)c1ccc(C(=O)Nc2ncccc2O)cc1 | 7090 nM
COc1ccccc1CCNCc1ccc(OC)c(OCc2ccccc2)c1 | 994 nM
COc1cc2c(cc1OC)C(c1ccccc1)N(C(=O)c1ccccc1F)CC2 (stereo not drawn) | 1100 nM
CCOC(=O)/C(=C\c1ccccc1)C(=O)c1cc(C(C)=O)c(Nc2ccccc2)s1 | 1150 nM
c1ccc(CNc2nc(-c3ccccc3)nc3ccccc23)cc1 | 1570 nM
CCOC(=O)c1ccccc1NS(=O)(=O)c1ccc(OC)cc1 | 16000 nM
CSC1=NC(C(Cl)(Cl)Cl)N=C(c2ccccc2)N1 (stereo not drawn) | 1470 nM
Cn1nc(C(=O)Nc2cccc(S(=O)(=O)N3CCCCC3)c2)c2ccccc2c1=O | 284 nM
COc1ccc(NC(=O)C2Cc3c(-c4cccc(C(C)=O)c4)ccnc3O2)cn1 (stereo not drawn) | 203 nM
Cn1c(=O)n(C)c2cc(NS(=O)(=O)c3ccc4c(c3)CCCC4)ccc21 | 2670 nM
Cc1ccc2nc(Cl)c(/C=C/C(=O)c3ccco3)cc2c1 | 7890 nM
OCCCCCN=c1cc(-c2ccccc2)oc2ccc(Cl)cc12 | 1970 nM
OCCCNc1c2ccccc2nc2ccccc12 | 467 nM
COc1ccc(C(=O)/C=C/c2ccc(N(C)C)cc2)c(OC)c1 | 11700 nM
Cc1ccc(/C=N/NC(=O)C2COc3ccccc3O2)s1 (stereo not drawn) | 307 nM
Cc1ccc2cc(CN(CCCN(C)C)C(=O)NCc3ccccc3)c(=O)[nH]c2c1C | 69.1 nM
CCOC(=O)N1CCN(c2c(NCc3ccc(F)cc3)c(=O)c2=O)CC1 | 8400 nM
O=C(Nc1cccc(-n2cnnn2)c1)c1cc(Cl)ccc1Cl | 4570 nM

SMILES | AC26
COc1ccc(Nc2nc(-c3c(C)nc4ncccn34)cs2)cc1 | 17.2 nM
COc1cccc(C2=CC(c3cccc(OC)c3OC)n3nnnc3N2)c1 (stereo not drawn) | 1300 nM
COC(=O)c1c(C)[nH]c(C(=O)/C=C/c2cccc(Cl)c2)c1C | 2410 nM
COc1ccc(/C=C/C(=O)c2ccc(Cl)s2)cc1O | 4730 nM
O=c1cc(N/N=C/c2ccccc2)[nH]c(=O)[nH]1 | 14400 nM
Nc1sc(-c2ccccc2)cc1-c1n[nH]c(=S)n1C1CCCCC1 | 10700 nM
CN(/N=C/c1ccc(N(C)C)cc1)C1=NS(=O)(=O)c2ccccc21 | 1610 nM
O=C(COC(=O)c1ccc(NS(=O)(=O)c2cccs2)cc1O)NCc1ccccc1 | 4820 nM
COc1ccc(C(=O)CSc2nn3c(=O)c(C(C)(C)C)nnc3s2)cc1 | 3870 nM
NC(=O)CC(NC(=O)Cc1ccc(Br)cc1)c1ccc(NCC2CC2)c([N+](=O)[O-])c1 (stereo not drawn) | 6670 nM
COc1cccc(OCC(O)CN2CCN(CCN3C(=O)c4cccc5cccc(c45)C3=O)CC2)c1 (stereo not drawn) | 4250 nM
CC(=O)Nc1cccc(-c2ccnc3c2CC(C)(C(=O)NCc2cccs2)O3)c1 (stereo not drawn) | 1450 nM
NC(=O)CC(NC(=O)Cc1ccc(Br)cc1)c1ccc(NC2CCC2)c([N+](=O)[O-])c1 (stereo not drawn) | 2760 nM
CN(Cc1ccccc1)c1nc2c(c(=O)n(C)c(=O)n2C)n1CCCc1ccccc1 | 981 nM
CCN(c1cccc(C)c1)S(=O)(=O)c1ccc(-c2cc(C)no2)s1 | 1270 nM
Cc1ccc(-c2nn3c(C)nnc3c3ccccc23)cc1S(=O)(=O)N1CCN(CCO)CC1 | 3870 nM
CCN(CC)CCCNc1nc2cc(OC)c(OC)cc2c2nc(-c3ccccc3)nn12 | 811 nM
CCOC(=O)C1=C(Cc2ccc(F)cc2)C(=O)c2ccccc2C1=O | 6390 nM
COc1ccc(C(=O)N2CCN(S(=O)(=O)c3ccc(C)cc3C)CC2)cc1S(=O)(=O)N1CCOCC1 | 5770 nM
Cc1noc(C)c1COc1ccc(C(=O)NNC(=O)c2ccccc2F)cc1 | 33.4 nM
O=C(N/N=C/c1ccco1)c1ccccc1OCc1ccccc1Cl | 1010 nM
CC(C)(C)NCC(O)CON=C1c2ccccc2-c2ccccc21 (stereo not drawn) | 5310 nM

SMILES | AC26
OCCNc1c2ccccc2nc2ccccc12 | 907 nM
CCc1ccc2nc3nc(C)cc(C)c3c(N)c2c1 | 2810 nM
O=C1c2cccc3cccc(c23)C(=O)N1CC1CCN(CC(O)COCc2ccc3c(c2)OCO3)CC1 (stereo not drawn) | > 19500 nM (inactive)
C/C(=N\NC(=O)c1c([N+](=O)[O-])c(C)nn1C)c1ccc(NC(=O)C2CCCC2)cc1 | 498 nM
O=C(NCCC1=CCCCC1)C1CCC(CNc2nc(=S)[nH]c3ccccc23)CC1 (stereo not drawn) | 3920 nM
O=CC1=C(c2ccccc2)Oc2ccccc2O1 | 10300 nM
O=C(/C=C/c1cccc([N+](=O)[O-])c1)c1ccc2c(c1)OCCO2 | 3330 nM
COc1ccc(/C=C/C(=O)Oc2cccc(/C=N/NC(=O)COc3c(C)cccc3C)c2)cc1 | 4770 nM
C/C(=N/NC(=O)c1cccs1)c1ccc(NC(=O)COc2ccc(Cl)cc2Cl)cc1 | 6270 nM
COc1cc(OC)c(N2CC(C(=O)Nc3cc(Cl)ccc3N3CCOCC3)CC2=O)cc1Cl (stereo not drawn) | 3310 nM
COc1cc(NC(=O)c2cc(-c3ccccc3)nc3c2cnn3C(C)C)cc(OC)c1OC | 1150 nM
CCc1nn2c(NCCCO)cc(C)nc2c1-c1ccc(F)cc1 | 1630 nM
CCc1ccc(CNC(=O)Cc2ccc(NC(=O)C3=C(C)OCCS3)cc2)cc1 | 352 nM
CCCNC(=O)c1ccccc1NC(=O)c1ccc2c(c1)NC(=O)C(C)S2 (stereo not drawn) | 1450 nM
CN1C(=O)C(=Cc2sc(=O)n(-c3ccccc3)c2N(C)C)C(=O)N(C)C1=O | 5320 nM
COC(=O)c1cc(C(=O)c2c(C)cc3ccccn23)cc([N+](=O)[O-])c1 | 1770 nM
CN(C)CCNC(=O)c1cccc2[nH]c(-c3ccncc3)nc12 | 894 nM
Cc1ccc(NC2=NC3(CCCC3)N=C(N)N2)c(C)c1 | 4230 nM
Cc1ccc(C)c(NC(=O)Cn2nnc(C(=O)NCc3ccco3)c2N)c1 | 9800 nM
Cc1ccc(C=Nc2ccccc2C(N)=O)cc1 | 2520 nM
